Assay results: PMC11079024, “Identification of a family of species-selective complex I inhibitors as potential anthelmintics” (Nature Communications, 2024)
“And” between values parts separate entries of the source, which are not always exact repeats. Identical values can stand only once. Like-named read-outs stand apart in the source and are kept apart here.

Experiments:
[1] = target: C. elegans complex II (succinate dehydrogenase) (Caenorhabditis elegans, UniProt O62215+P41956+Q09545); assay: In vitro complex II activity assay, C. elegans mitochondria; type: biochemical; settings: single replicate
Sequence of C. elegans complex II (succinate dehydrogenase) (P41956 30-182): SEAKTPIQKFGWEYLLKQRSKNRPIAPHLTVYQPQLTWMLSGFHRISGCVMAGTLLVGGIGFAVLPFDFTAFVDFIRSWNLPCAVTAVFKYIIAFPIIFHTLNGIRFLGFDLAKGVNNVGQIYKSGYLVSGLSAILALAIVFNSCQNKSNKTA
Sequence of C. elegans complex II (succinate dehydrogenase) (Q09545 22-298): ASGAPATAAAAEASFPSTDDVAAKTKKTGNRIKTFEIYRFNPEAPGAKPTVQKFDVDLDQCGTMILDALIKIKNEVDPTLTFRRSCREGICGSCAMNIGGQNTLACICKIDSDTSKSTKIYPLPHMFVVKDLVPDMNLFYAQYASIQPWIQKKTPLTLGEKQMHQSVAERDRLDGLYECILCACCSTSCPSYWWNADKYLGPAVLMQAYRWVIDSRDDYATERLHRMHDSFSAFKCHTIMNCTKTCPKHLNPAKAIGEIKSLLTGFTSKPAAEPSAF
Sequence of C. elegans complex II (succinate dehydrogenase) (Q09508 32-646, further chain): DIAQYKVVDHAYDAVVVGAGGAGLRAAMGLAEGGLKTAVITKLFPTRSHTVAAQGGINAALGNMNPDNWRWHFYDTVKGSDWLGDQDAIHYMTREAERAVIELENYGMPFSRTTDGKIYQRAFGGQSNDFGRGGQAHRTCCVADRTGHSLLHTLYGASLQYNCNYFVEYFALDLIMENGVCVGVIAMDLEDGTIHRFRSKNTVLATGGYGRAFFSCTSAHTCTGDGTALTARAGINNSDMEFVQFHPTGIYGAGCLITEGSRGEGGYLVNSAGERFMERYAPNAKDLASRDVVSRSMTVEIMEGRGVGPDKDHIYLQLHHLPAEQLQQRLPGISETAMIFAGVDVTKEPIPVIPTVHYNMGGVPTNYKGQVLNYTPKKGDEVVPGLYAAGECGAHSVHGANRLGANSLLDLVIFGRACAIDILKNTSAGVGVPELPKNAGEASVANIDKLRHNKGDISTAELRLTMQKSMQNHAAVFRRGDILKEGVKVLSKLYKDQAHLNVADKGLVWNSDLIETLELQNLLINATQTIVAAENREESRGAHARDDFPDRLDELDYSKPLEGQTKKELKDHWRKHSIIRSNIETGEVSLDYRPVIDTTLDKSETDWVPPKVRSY
Sequence of C. elegans complex II (succinate dehydrogenase) (O62215 31-145): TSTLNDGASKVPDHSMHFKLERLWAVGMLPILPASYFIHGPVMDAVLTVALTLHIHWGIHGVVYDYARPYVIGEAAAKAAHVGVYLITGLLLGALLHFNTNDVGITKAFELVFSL
Experimental: Mitochondria were isolated from the following free-living nematode strains: C. elegans—N2, CB3474, ECA882, ECA917, ECA1075, ECA1080; C. briggsae—AF16; P. pacificus—PS312; and P. hermaphrodita—B178. With the exception of the P. hermaphrodita strain B178, adult worms of each strain were grown in bulk through liquid culture to obtain mitochondria in sufficient quantities. Due to poor growth in liquid media, mixed stage populations of P. hermaphrodita were washed off and collected from NGM plates seeded with OP50. The isolation of mitochondria from all free-living nematode strains followed the protocol previously outlined in Burns et al.[24]. In brief, a 1 L saturated culture of E. coli HB101 was concentrated 20-fold in 50 mL complete S-medium. ~500,000 L1 worms synchronized from an embryo preparation performed the day prior were added to the S-media/HB101 suspension and grown to adulthood over the course of 3.5 days at 20 °C with shaking at 165 rpm. Following growth, worms were collected in 10 ×15 mL conical tubes and washed 7 times in M9 buffer. Worm suspensions were then combined into a single 15 mL conical tube and diluted to a final volume of 15 mL with M9 buffer. 1 mL aliquots of worm suspension were then distributed to 15 × 1.5 mL screw-cap microcentrifuge tubes and were pelleted at 500 g for 1 min. Excess M9 was aspirated without disturbing the worm pellet. 600 μL ice-cold isolate buffer A (250 mM sucrose, 10 mM Tris (pH 7.5), 1 mM EDTA, 1 mM PMSF (freshly prepared)) and 300 μL cold glass beads were then added to each tube. Tubes were incubated on ice for 10 min, and the worms were then lysed by bead beating (6 x 30 s, with 1 min cooling intervals). Tubes containing worm lysate were centrifuged at 1,000 g for 10 min at 4 °C and the supernatant was transferred to 15 new microcentrifuge tubes on ice. The tubes were centrifuged a second time at 1,000 g for 10 min at 4 °C and the supernatant was once again transferred to 15 new microcentrifuge tubes on ice. These tubes were then centrifuged at 16,000 g for 10 min at 4 °C. The resulting mitochondrial pellet was washed twice by re-suspension in 300 μL of ice-cold isolate buffer B (250 mM sucrose, 10 mM Tris (pH 7.5), 1 mM EDTA). Following the final wash, isolation buffer was aspirated from each tube and the pellets were flash-frozen in ethanol/dry ice and stored at −80 °C until needed.
The enzymatic activities of individual ETC complexes (I-IV) were assessed spectrophotometrically in isolated mitochondria using a Varioskan LUX Multimode plate reader (ThermoFisher Scientific). Mitochondrial pellets previously isolated were thawed on ice and resuspended in ice-cold isolation buffer (250 mM sucrose, 10 mM Tris (pH 7.5), 1 mM EDTA). The BCA assay (Walker, 1994) was used to quantify the protein concentration of mitochondria suspensions; solutions were diluted to a concentration of 0.2 mg/mL for use in all assays. For the complex I assay, mitochondria pellets were freeze-thawed on ice three times to increase enzyme accessibility. […] 20 μL mitochondria suspension was then added/mixed with a pipette to initiate the reaction. Immediately following the addition of mitochondria, absorbance was measured (complex I and II: 600 nm; complex III and IV: 550 nm) in 30 s intervals over 15 min. Enzymatic activity was determined in each reaction by plotting absorbance versus time and calculating the slope of the curve during the initial linear phase of the reaction. […] Percent activity of each complex was calculated by dividing the enzyme-specific activity of each well by the enzyme-specific activity of the corresponding solvent controls.
Complex II (succinate dehydrogenase) activity was assessed using the DCIP-coupled method previously described in Burns et al.[24].
For preliminary screens of hit compounds, compounds were screened at 100 μM; data are the average of at least three biological replicates. The complex I and II activity assays were used for additional dose-response experiments.

L1 wild-type C. elegans = settings: for Screen "Hit" / Relative Motility: 50 μM; for Relative Motility: relative to DMSO controls, single biological replicate
[2] = hit = relative motility below 0.25 3 hours after removal of KCN
[3] = worm motility 3 hours after removal of KCN
[4] = KCN survival assay, hit = relative motility below 0.25
[5] = worm motility 3 hours after the removal of KCN (endpoint)
[6] = hit = relative motility below 0.25 3 hours after the removal of KCN
[7] = active (hit) or inactive (non) at 50 μM in C. elegans assay of RQ-dependent metabolism
[8] = active or inactive at 50 μM in C. elegans assay of RQ-dependent metabolism

SMILES: O=C(O)CC(=O)O [Malonate]
- Absorbance DCIP [600nm], complex II ([1]; 30 s): 0.481 and 0.464 and 0.499
- Absorbance DCIP [600nm], complex II ([1]; 60 s): 0.480 and 0.464 and 0.499
- Absorbance DCIP [600nm], complex II ([1]; 90 s): 0.480 and 0.464 and 0.499
- Absorbance DCIP [600nm], complex II ([1]; 120 s): 0.480 and 0.464 and 0.499
- Absorbance DCIP [600nm], complex II ([1]; 150 s): 0.480 and 0.463 and 0.499
- Absorbance DCIP [600nm], complex II ([1]; 180 s): 0.480 and 0.463 and 0.499
- Absorbance DCIP [600nm], complex II ([1]; 210 s): 0.480 and 0.463 and 0.498
- Absorbance DCIP [600nm], complex II ([1]; 240 s): 0.480 and 0.463 and 0.498
- Absorbance DCIP [600nm], complex II ([1]; 270 s): 0.479 and 0.462 and 0.498 and 0.486
- Absorbance DCIP [600nm], complex II ([1]; 300 s): 0.479 and 0.461 and 0.498 and 0.486
- Absorbance DCIP [600nm], complex II ([1]; 330 s): 0.478 and 0.461 and 0.497 and 0.485
- Absorbance DCIP [600nm], complex II ([1]; 360 s): 0.477 and 0.460 and 0.496 and 0.484
- Absorbance DCIP [600nm], complex II ([1]; 390 s): 0.476 and 0.460 and 0.495 and 0.483
- Absorbance DCIP [600nm], complex II ([1]; 420 s): 0.476 and 0.459 and 0.494 and 0.482
- Absorbance DCIP [600nm], complex II ([1]; 450 s): 0.475 and 0.459 and 0.494 and 0.482
- Absorbance DCIP [600nm], complex II ([1]; 480 s): 0.475 and 0.458 and 0.494 and 0.481
- Absorbance DCIP [600nm], complex II ([1]; 510 s): 0.474 and 0.457 and 0.493 and 0.481
- Absorbance DCIP [600nm], complex II ([1]; 540 s): 0.473 and 0.457 and 0.492 and 0.480
- Absorbance DCIP [600nm], complex II ([1]; 570 s): 0.473 and 0.457 and 0.492
- Absorbance DCIP [600nm], complex II ([1]; 600 s): 0.472 and 0.457 and 0.491
- Absorbance DCIP [600nm], complex II ([1]; 630 s): 0.471 and 0.457 and 0.491
- Absorbance DCIP [600nm], complex II ([1]; 660 s): 0.470 and 0.456 and 0.490
- Absorbance DCIP [600nm], complex II ([1]; 690 s): 0.470 and 0.456 and 0.490
- Absorbance DCIP [600nm], complex II ([1]; 720 s): 0.470 and 0.455 and 0.489
- Absorbance DCIP [600nm], complex II ([1]; 750 s): 0.470 and 0.455 and 0.489
- Absorbance DCIP [600nm], complex II ([1]; 780 s): 0.469 and 0.454 and 0.489
- Absorbance DCIP [600nm], complex II ([1]; 810 s): 0.469 and 0.454 and 0.489
- Absorbance DCIP [600nm], complex II ([1]; 840 s): 0.470 and 0.453 and 0.490
- Absorbance DCIP [600nm], complex II ([1]; 870 s): 0.469 and 0.453 and 0.489
- Absorbance DCIP [600nm], complex II ([1]; 900 s): 0.468 and 0.453 and 0.489

SMILES: CCC(C)c1ccccc1OCCn1cnc2ccccc21 (stereo not drawn) [Compound 7925137]
- Screen "Hit" (L1 wild-type C. elegans; [2]): Y (hits were identified as compounds that reduced relative motility below 0.25 (75% reduction))
- Relative Motility (L1 wild-type C. elegans; [3]): 0.220

SMILES: CC(C)(C)c1ccc(Cn2c(N)nc3ccccc32)cc1 [Compound 5564334]
- Screen "Hit" (L1 wild-type C. elegans; [4]): Y (hits were identified as compounds that reduced relative motility below 0.25 (75% reduction))
- Relative Motility (L1 wild-type C. elegans; [5]): 0.130

SMILES: CCn1c(/C=C/c2ccccc2)nc2ccccc21 [Compound 5958035]
- Screen "Hit" (L1 wild-type C. elegans; [4]): Y (hits were identified as compounds that reduced relative motility below 0.25 (75% reduction))
- Relative Motility (L1 wild-type C. elegans; [5]): 0.160

SMILES: CC(C)CCSc1nc2ccccc2[nH]1 [Compound 5867913]
- Screen "Hit" (L1 wild-type C. elegans; [6]): Y (hits were identified as compounds that reduced relative motility below 0.25 (75% reduction))
- Relative Motility (L1 wild-type C. elegans; [5]): 0.150

SMILES: Brc1cc2nc[nH]c2c2ccccc12 [Compound 7873254]
- Screen "Hit" (L1 wild-type C. elegans; [6]): Y (hits were identified as compounds that reduced relative motility below 0.25 (75% reduction))

SMILES: FC(OC(F)(F)F)c1nc2ccc(Cl)cc2[nH]1 (stereo not drawn) [Compound 5119407]
- Hit (L1 wild-type C. elegans; [7]): non

SMILES: Cc1ccccc1Cn1cnc2ccccc21 [Compound 5656207]
- Hit (L1 wild-type C. elegans; [8]): non

SMILES: CCCOc1ccc(Cn2c(CO)nc3ccccc32)cc1 [Compound 7356999]
- Hit (L1 wild-type C. elegans; [8]): non

SMILES: CCOc1ccc(CNc2nc3ccccc3n2CCN(CC)CC)cc1 [Compound 7768813]
- Screen "Hit" (L1 wild-type C. elegans; [2]): Y (hits were identified as compounds that reduced relative motility below 0.25 (75% reduction))
- Relative Motility (L1 wild-type C. elegans; [3]): 0.210

SMILES: c1ccc(Cn2c(-c3cncs3)nc3ccccc32)cc1 [Compound 7815425]
- Hit (L1 wild-type C. elegans; [7]): non
